Assay results: patent US20060247258A1, “Use of levocetirizine for the treatment of persistent allergic rhinitis” (UCB Farchim S.A., priority 2002, published 2006)
Structures can show the parent of a compound that is named as a salt.

Tests used:
Assay type in all cases: in vivo, adult patients
[1] = system: persistent allergic rhinitis; test: Clinical study in persistent allergic rhinitis: Total 5 Symptoms Score (T5SS)
From the text: (§1) For clinical symptoms, it was considered that a 1 point score reduction is clinically relevant. For health-related quality of life, it was considered that a 0.36 point score reduction is relevant. Secondary parameters of efficacy included different durations of treatment, different symptoms, different quality of life questionnaires, the incidence of co-morbidities suspected to be linked to allergic rhinitis and pharmaco-economic variables.
(§2) The target population of this example consisted of adults aged more than 18 years suffering from persistent allergic rhinitis [WHO Initiative on Allergic Rhinitis and its Impact on Asthma (ARIA), 2000, pages S147-S149]. To be enrolled, the subjects needed to have sufficient rhinitis symptoms during the selection period. Excluded were patients with ENT or eye infection during the 2-weeks preceding initial visit.
(§3) The study was a prospective, randomized, double blind, parallel group, and placebo-controlled study with levocetirizine dihydrochloride.
(§4) The severity of clinical symptoms was rated by the T5SS (sneezing, rhinorrhea, nasal pruritus, ocular pruritus and nasal congestion) evaluated each by a score from 0 to 3. The impact on health related quality of life was measured using the Rhinoconjunctivitis Quality of Life Questionnaire (RQLQ) (E. JUNIPER and G. H. GUYAIT, Development and testing of a new measure of health status for clinical trials in rhinoconjunctivitis, Clinical and Experimental Allergy 1991; 21:77-83; E. JUNIPER, Measuring Health Related Quality of Life in rhinitis, J. Allergy Clin. Immunol. 1997; 99:S742-9).
(§5) Study treatment lasted for 6 months. After the treatment period, patients entered a 1-week follow-up period.
(§6) The primary end-point for efficacy was a decrease of the T5SS over the first 4 weeks of at least 1 unit of score. The primary end-point for quality of life was a decrease of RQLQ after 4 weeks of at least 0.36 unit of the total score.
(§7) Secondary parameters of efficacy included the mean T5SS, the RQLQ and the SF-36 questionnaire at the different time points of the study, and the incidence and the duration of rescue medication over 6 months.
(§8) Oral tablets of levocetirizine dihydrochloride (5 mg) and matching placebo, similar in appearance, shape and taste were used. The recommended study dosage was 1 tablet per day.

[2] = system: persistent allergic rhinitis; test: Clinical study in persistent allergic rhinitis: Rhinoconjunctivitis Quality of Life Questionnaire (RQLQ)
From the text: as §1, §2, §3, §4, §5, §6, §7, §8
Sample size was based on 40% relative improvement over placebo in the RQLQ questionnaire, assuming an improvement from baseline for placebo of 0.9. For this questionnaire this corresponds to a difference of 0.36 vs. placebo.

[3] = system: persistent allergic rhinitis; test: Clinical study in persistent allergic rhinitis: individual rhinitis symptom scores (nasal congestion, sneezing, rhinorrhea, nasal pruritus, ocular pruritus); details: for Effect on nasal congestion / nasal obstruction (in words): long term treatment
From the text: as §1, §2, §3, §4, §5
Exploratory parameters of efficacy included the mean of each individual rhinitis score, each RQLQ domain and each scale of the SF-36 questionnaire at the different time points of the study, the Global Evaluation Scale after 4 weeks and 6 months, the incidence of co-morbidities suspected to be linked to allergic rhinitis and the pharmaco-economic direct and indirect costs over 6 months.
as §8

[4] = system: persistent allergic rhinitis; test: Clinical study in persistent allergic rhinitis: safety of long-term treatment; details: 5 mg once per day; 6 month treatment
From the text: The aim of the study relative to the clinical effect of levocetirizine dihydrochloride was to establish on the intention to treat (ITT population) whether a 6 month levocetirizine dihydrochloride treatment can improve the quality of life and clinical symptoms from adult patients suffering from persistent allergic rhinitis, when compared to placebo. For clinical symptoms, it was considered that a 1 point score reduction is clinically relevant. For health-related quality of life, it was considered that a 0.36 point score reduction is relevant. Secondary parameters of efficacy included different durations of treatment, different symptoms, different quality of life questionnaires, the incidence of co-morbidities suspected to be linked to allergic rhinitis and pharmaco-economic variables. The safety of this long-term treatment with levocetirizine dihydrochloride has also been evaluated.
At each of the eight visits, diary book entries (T5SS, RQLQ, SF-36, indirect cost pharmaco-economic parameters, concomitant medication, outpatient consultations and adverse events) were verified and transferred into the Clinical Record Form and direct cost pharmaco-economic parameters were recorded. Patients underwent a physical examination, including the measurement of vital signs. […]
Adverse events were recorded by the patients on diary cards and discussed with the investigator at each visit. […]

[5] = 5 mg once per day, 6 month treatment
[6] = 5 mg oral tablet once per day, over the first four weeks of treatment, ITT population
[7] = 5 mg oral tablet once per day, after first 4 weeks of treatment, ITT population
[8] = 5 mg, 3 months, evaluated over the 24 hours, ITT population
[9] = 5 mg, 4.5 months, evaluated over the 24 hours, ITT population
[10] = 5 mg, 6 months, evaluated over the 24 hours, ITT population
[11] = 5 mg, First 4 weeks, evaluated over the 24 hours, ITT population
[12] = 5 mg, Week 1, evaluated over the 24 hours, ITT population

O=C(O)COCCN1CCN([C@H](c2ccccc2)c2ccc(Cl)cc2)CC1 [Lctz, levocetirizine dihydrochloride]
Duration of effect on rhinitis [1, 5]: has an effect on rhinitis up to 6 months
Tachyphylaxis (need to adjust the dosing schedule) ([1]; 5 mg once per day, during 6 months): lack of tachyphylaxis
Mean T5SS, Adjusted mean (adjusted for baseline score and country) [1, 6]: 5.43
Mean T5SS, Mean (SD) [1, 6]: 5.53 (2.52)
Mean T5SS, Diff. vs. placebo (95% CI), placebo minus Lctz 5 mg ([1]; 5 mg oral tablet once per day, over the first four weeks of treatment, ITT population, dihydrochloride): 1.14
Duration of effect on quality of life [2, 5]: has an effect on quality of life up to 6 months
Change from baseline of the RQLQ Overall Score, Adjusted Mean (adjusted for baseline score and country) [2, 7]: −1.49
Change from baseline of the RQLQ Overall Score, Mean [2, 7]: −1.50
Change from baseline of the RQLQ Overall Score, Diff. vs. placebo (95% CI), placebo minus Lctz 5 mg ([2]; 5 mg oral tablet once per day, after first 4 weeks of treatment, ITT population, dihydrochloride): 0.48
Improvement of sneezing, rhinorrhea, nasal pruritus and ocular pruritus ([3]; 5 mg once per day, at all time points, vs. placebo): statistically significant improvement
Effect on nasal congestion / nasal obstruction (in words) ([3]; 5 mg once per day, listed as Levocetirizine, dihydrochloride): active on nasal obstruction after a long term treatment (equal or more than 3 months)
Effect on nasal congestion / nasal obstruction (in words) ([3]; 5 mg once per day, listed as levocetirizine dihydrochloride, dihydrochloride): has an effect on nasal congestion after 3 months
Nasal congestion symptoms, Adjusted Mean [3, 8]: 1.16
Nasal congestion symptoms, Mean (SD) [3, 8]: 1.22 (0.78)
Nasal congestion symptoms, Diff. vs. (95% CI), placebo minus Lctz ([3]; 5 mg, 3 months, evaluated over the 24 hours, ITT population, dihydrochloride): 0.15
Nasal congestion symptoms, Adjusted Mean [3, 9]: 1.11
Nasal congestion symptoms, Mean (SD) [3, 9]: 1.17 (0.77)
Nasal congestion symptoms, Adjusted Mean [3, 10]: 1.08
Nasal congestion symptoms, Mean (SD) [3, 10]: 1.13 (0.76)
Nasal congestion symptoms, Adjusted Mean [3, 11]: 1.40
Nasal congestion symptoms, Mean (SD) [3, 11]: 1.44 (0.78)
Nasal congestion symptoms, Adjusted Mean [3, 12]: 1.58
Nasal congestion symptoms, Mean (SD) [3, 12]: 1.61 (0.83)
Safety of long-term administration [4]: did not involve particular safety concerns
